These results are taken from publication PMC8749431 (mBio, 2022).

What is called EC50 is the concentration giving half of the maximal effect. The low end stands for an effect from little substance, the high end for a need for much substance. What is called EC90 is the point of the concentration-response curve where the effect stands at 90%. Low readings indicate an effect from little substance, high ones a need for much substance.

Assay [1] has as its system pseudotyped VSVs harboring SARS-CoV-2 S (SARS2-Spp). Nature of the assay: microbe, parasite or virus in culture. The class given is cell-based.
For assay [2], the system named is rVSV-SARS-CoV-2-S-GFP. In kind it is cell-based.
Setting [3] is: Severe acute respiratory syndrome coronavirus 2, 24 h.
Setting [4] is: Severe acute respiratory syndrome coronavirus 2, Huh-7, 24 h.
The mark [5] stands for this setting: Severe acute respiratory syndrome coronavirus 2, MA104, 24 h.
[6] abbreviates: Severe acute respiratory syndrome coronavirus 2.
[7] abbreviates: Severe acute respiratory syndrome coronavirus 2, MA104.

As for `CCOC(=O)[C@H]1O[C@@H]1C(=O)N[C@@H](CC(C)C)C(=O)NCCC(C)C` [E-64d], in assay [1], the “inhibition of SARS2-Spp entry” value was “inhibited”.
As to `CN(C)C(=O)COC(=O)Cc1ccc(OC(=O)c2ccc(NC(=N)N)cc2)cc1` [Camostat, camostat], the EC50 in assay [1] (setting [3]), in assay [1] (setting [4]) and in assay [1] (setting [5]) was greater than 100 µM in each case.
Regarding `CCN(CC)CCCC(C)Nc1ccnc2cc(Cl)ccc12` (stereo not drawn) [Chloroquine, chloroquine], the “inhibition of SARS2-Spp entry” value in assay [1] is “inhibited”. For the same compound, the EC90 in assay [1] (setting [6]) was determined as 30.2 µM; in assay [1] (setting [7]), 32.3 µM. For the same compound, the values for the concentration giving a half-maximal response (EC50) in assay [1] (setting [3]), in assay [1] (setting [4]) and in assay [1] (setting [5]) were 2.07 µM, 4.38 µM and 7.65 µM, respectively. Further, the “EC50 (GFP signals)” value in assay [2] is “single-digit micromolar range”. Also, the “inhibition of rVSV-SARS-CoV-2-S-GFP infection” value in assay [2] is on record as “inhibited”.
As to `CN1CCN([C@@H](c2ccccc2)c2ccc(Cl)cc2)CC1` [(S)-CCZ, (S)-chlorcyclizine], the results for the EC50 in assay [1] (setting [3]), in assay [1] (setting [4]) and in assay [1] (setting [5]) were 11.4 µM, 9.2 µM and 4.09 µM, respectively. Further, in assay [1] (setting [7]), it took 11.1 µM to reach the 90% level (EC90).
Turning to `CCN1CCN(C(c2ccc(Cl)cc2)c2ccc(Cl)cc2)CC1` [Dichlorcyclizine, dichlorcyclizine], the EC50 worked out at 2.34 µM in assay [1] (setting [3]), 3.05 µM in assay [1] (setting [4]) and 4.53 µM in assay [1] (setting [5]). Further, the “EC50 (GFP signals)” value in assay [2] is listed as “single-digit micromolar range”. Also, in assay [2], the “inhibition of rVSV-SARS-CoV-2-S-GFP infection” value is “inhibited”.
In assay [1] (setting [6]), `O=C(CCCC[C@@H]1SC[C@@H]2NC(=O)N[C@@H]21)NCc1ccc(C2(C(F)(F)F)N=N2)cc1` [DB-Ctrl] registered an EC50 greater than 100 µM.
Still for that read-out and setting: with `O=C(CCCCC1SCC2NC(=O)NC21)NCCOCCOCCN1CCN(C(c2ccc(Cl)cc2)c2ccc(C3(C(F)(F)F)N=N3)cc2)CC1` (stereo not drawn) [CCZ-DB] the figure was 12.9 µM.
For the compound `Cc1cc(-c2nc(CN3CCC(C(=O)NCCCN4C[C@H](C)C[C@H](C)C4)CC3)co2)ccc1F` [Fluoxazolevir, fluoxazolevir], the results for the EC90 in assay [1] (setting [6]) and in assay [1] (setting [7]) were 13.6 µM and 18.5 µM, respectively. In addition, the EC50 turned out to be 6.82 µM in assay [1] (setting [3]), 2.64 µM in assay [1] (setting [4]) and 3.86 µM in assay [1] (setting [5]). For the same compound, the “EC50 (GFP signals)” value in assay [2] is given as “single-digit micromolar range”. Also, the “inhibition of rVSV-SARS-CoV-2-S-GFP infection” value in assay [2] was “inhibited”.
